Laboratory results published in patent US11364311B2, “Method of identifying ASD phenotype 1 patients” (Stalicla S.A., priority 2017, dated 2022).
Like-named read-outs stand apart in the source and are kept apart here.

What was measured:
ASD phenotype 2 patients = settings: for Clinical significance (CGI-I): after 3 days of sulforaphane administration; for ADI-R-RI S score / ADI-R-C S score / ADI-R-SI S score: day 3 of challenge test, given as broccoli sprout extract as in example 3; for ADI-R-SI S score: B score 16
Procedure: The effects of sulforaphane containing Broccoli sprout extract was observed and quantified in 7 individuals suffering from ASD and previously classified as either phenotype 1 or phenotype 2 patients.
We describe a procedure consisting of an evaluation of patients with ASD prior and after administration of broccoli sprout extract. The extract was prepared from selected broccoli seeds known to have high yield of sulforaphane which were surface-disinfected and grown (sprouted) for 3 days in a commercial sprouting facility under controlled light and moisture conditions. A boiling water extract was prepared, filtered, cooled, and treated with the enzyme myrosinase (from daikon sprouts) to convert precursor glucosinolates to isothiocyanates. Behavioral evaluation of patients was performed prior, during and after administration of sulforaphane-containing broccoli sprout extract. Baseline evaluation of patients was performed using standard clinical endpoints (ADI-R subscales ADI-SI, ADI-C and ADI-RI).
Challenge regimen consisted of the administration of a Broccoli Sprout Extract dose corresponding to a total daily dosage of 4 μmol/kg of sulforaphane, administered in 3 doses over the course of the day.
The assessment of baseline scores and post challenge test scores was conducted by two experienced clinicians with extensive experience in conducting ASD clinical assessments, both of which separately rated the patients. In case of diverging scores in test subscales at baseline or after administration of the challenge test, the lowest severity score was retained. Assessment of clinical endpoints was performed at day 3 of administration of challenge test. Behavioral Outcome Measures: (primary efficacy endpoints): ABC, SRS; CGI-S, CGI-I and ADI-R (ADI-SI, ADI-C, ADI-RI).

humans = settings: cited from earlier work
[1] = system: lymphoblastoid cell lines of ASD phenotype 1 patients; test: Energy production (NADH) in Biolog Phenotype Mammalian MicroArrays, phenotype 1 cells; format: cell-based, human; settings: cells exposed to the factor; Figure 1 (AUC) and Table 1
From the text: The phenotype 1 cohort (Phi) selected far in vitro experiments was composed by 14 males and 1 female (ratio 14:1), with an age range of 2-17 years (average 7.7).
From all subjects, blood samples were collected and lymphoblastoid cell lines generated. Briefly, tubes containing anticoagulant citrate dextrose (ACD) were used to collect blood samples via venipuncture, in order to ensure that the blood cells remained metabolically active. The tubes were kept at room temperature and processed within 24 hours.
Cell lines were obtained by immortalization of lymphocytes from blood samples using Epstein-Barr virus.
Energy production of cells was measured using commercially available Phenotype Mammalian MicroArrays (PM-Ms, Biolog, Hayward, Calif., USA).
The compound in each well was designed to be used by the cells, either as the sole energy source or as the metabolic effector influencing the utilization of an energy source (α-D-glucose) added in the cell suspension. […] Before plating, cell viability and number were assessed utilizing a BioRad cell counter and a trypan blue dye. The concentration of live cells required for plating was 4×10^5 cells/mL, corresponding to 20,000 cells per well in a volume of 50 μL. […] Cells were incubated for 48 h at 37° C. in 5% CO2, using the modified Biolog IF-M1 medium.
The Biolog IF-M1 medium was modified for plates PM-M1 to M4 by adding the following to 100 mL of Biolog IF-M1: 1.1 mL of 100× penicillin/streptomycin solution, 0.18 mL of 200 mM glutamine (final concentration 0.3 mM), and 5.3 mL of Fetal Bovine Serum (FBS, final concentration 5%). For plates PM-M5 to M8, 5.5 mM α-D-glucose will be added in place of FBS.
During the 48-hour incubation, the only energy source the cells had was the chemical in the well. After this first incubation, Biolog Redox Dye Mix MB was added (10 μL/well) and the plates were incubated under the same conditions for an additional 24 hours. As the cells metabolized the energy source, tetrazolium dye in the media was reduced, producing a purple color according to the amount of NADH generated.
For the last 24 hours of the experiment, the plates were incubated in the Omnilog system, which collects optical density readings every 15 minutes, generating 96 data-points for each well. The system also elaborated the kinetic curve for the metabolic reaction in each well and extrapolated parameters such as slope, highest point, endpoint, area under the curve (AUC), and lag.
At the end of the 24-hour incubation, the plates were analyzed utilizing a microplate reader with readings at 590 and 750 nm. The first value (A590) indicated the highest absorbance peak of the redox dye and the second value (A750) gave a measure of the background noise. The relative absorbance (A590-750) was calculated per well.

[2] = Example 4 Patient 1 (phenotype 2)
[3] = Example 4 Patient 2 (phenotype 2)

What does the source list for `C[S@@+]([O-])CCCCN=C=S` [sulforaphane, 1-isothiocyanato-4R-(methylsulfinyl)butane]?
Clinical significance (CGI-I) (ASD phenotype 2 patients; [2]): Very much improved; ADI-R-RI S score (ASD phenotype 2 patients; Example 4 Patient 1 (phenotype 2), B score 3): 3; ADI-R-C S score (ASD phenotype 2 patients; Example 4 Patient 1 (phenotype 2), B score 12): 10; ADI-R-SI S score (ASD phenotype 2 patients; [2]): 12; Clinical significance (CGI-I) (ASD phenotype 2 patients; [3]): Very much improved; ADI-R-RI S score (ASD phenotype 2 patients; Example 4 Patient 2 (phenotype 2), B score 5): 4; ADI-R-C S score (ASD phenotype 2 patients; Example 4 Patient 2 (phenotype 2), B score 11): 9; ADI-R-SI S score (ASD phenotype 2 patients; [3]): 14; tolerability of administration to humans (humans; humans): well tolerated; toxicity (humans; in vivo): low toxicity

For “FGF-1(aFGF): growth factor that selectively targets the PI3K-Akt-mTOR pathway”, which “production of NADH in ASD phenotype 1 cells compared to TDs and non-phenotype 1 cells” value [1] is on record?
Its value is “significantly reduced production of NADH”.

With IGF-I: insulin-like growth factor 1 as the compound, how does the “production of NADH in ASD phenotype 1 cells compared to TDs and non-phenotype 1 cells” value [1] read?
Its value is “no significant differences”.

With IL-1beta: Th1 cytokine as the compound, how does the “production of NADH in ASD phenotype 1 cells compared to TDs and non-phenotype 1 cells” value [1] read?
The value was “significantly lower levels of NADH”.

Which “production of NADH in ASD phenotype 1 cells compared to TDs and non-phenotype 1 cells” value [1] does the source give for IL-6: Th1 cytokine here?
Its value is “significantly lower levels of NADH”.

For “PDGF-AB: platelet-derived growth factor AB”, which “production of NADH in ASD phenotype 1 cells compared to TDs and non-phenotype 1 cells” value [1] is on record?
The value was “no significant differences”.

With “hGH(Somatotropin): growth factor that selectively targets the PI3K-Akt-mTOR pathway” as the compound, how does the “production of NADH in ASD phenotype 1 cells compared to TDs and non-phenotype 1 cells” value [1] read?
Its value is “significantly reduced production of NADH”.
